Assay results from the CheMixHub viscosity set.

Assay: xn = mol fraction of the nth substance listed

OC1CCCCCCC1 + OCCO
viscosity [mPa·s], 100 kPa
Settings | 293.15 K | 298.15 K | 303.15 K | 308.15 K | 313.15 K | 318.15 K
x1 = 0.0094 | 20.68 | 16.94 | 13.8 | 11.25 | 9.588 | 7.888
x1 = 0.0394 | 21.39 | 17.13 | 13.91 | 11.23 | 9.61 | 7.891
x1 = 0.0577 | 21.55 | 17.25 | 13.99 | 11.26 | 9.627 | 7.892
x1 = 0.0877 | 21.87 | 17.42 | 14.13 | 11.32 | 9.649 | 7.894
x1 = 0.0999 | 21.97 | 17.51 | 14.16 | 11.34 | 9.664 | 7.895
x1 = 0.196 | 23.21 | 18.26 | 14.61 | 11.54 | 9.751 | 7.903
x1 = 0.3048 | 24.11 | 20.09 | 15.23 | 11.92 | 9.992 | 7.975
x1 = 0.3968 | 28.39 | 21.73 | 16.84 | 13.28 | 11.14 | 9.079
x1 = 0.4992 | 32.09 | 25.61 | 20.38 | 16.11 | 13.47 | 10.83
x1 = 0.5876 | 42.39 | 31.92 | 25.48 | 19.91 | 16.45 | 13.04
x1 = 0.6991 | 59.53 | 45.81 | 35.59 | 27 | 21.75 | 16.79
x1 = 0.7995 | 87.86 | 66.12 | 49.1 | 35.98 | 28.14 | 21.15
x1 = 0.8976 | 130 | 94 | 71 | 49.5 | 39 | 28

CCCCCl + c1ccccc1
viscosity [mPa·s], 101 kPa
Settings | 298.15 K | 308.15 K | 318.15 K | 323.15 K
x1 = 0.098 | 0.557 | 0.492 | 0.437 | 0.417
x1 = 0.153 | 0.542 | 0.481 | 0.428 | 0.404
x1 = 0.8 | 0.454 | – | – | 0.358

CCCNCCC + c1ccccc1
viscosity [mPa·s], 101 kPa
Settings | x1 = 0.0105 | x1 = 0.02072 | x1 = 0.0306 | x1 = 0.03896 | x1 = 0.05078 | x1 = 0.06138 | x1 = 0.07232 | x1 = 0.08121 | x1 = 0.09171
303.15 K | 0.5622 | 0.5617 | 0.561 | 0.5607 | 0.5602 | 0.5588 | 0.5575 | 0.5554 | 0.5542
313.15 K | 0.4915 | 0.4902 | 0.4897 | 0.489 | 0.488 | 0.4872 | 0.4861 | 0.4851 | 0.4839

CCOC(=O)c1ccccc1 + c1ccccc1
298.15 K, 101 kPa
Settings | viscosity [mPa·s]
x1 = 0.1302 | 0.7244
x1 = 0.3809 | 1.018
x1 = 0.522 | 1.2
x1 = 0.6112 | 1.327
x1 = 0.7595 | 1.557
x1 = 0.848 | 1.709
